Legend:
Format in all cases: biochemical
Pim3 kinase = Pim3 kinase (Homo sapiens (Human), UniProt Q86V86); test: Pim3 ATP depletion assay; settings: 40 μM ATP, 100 μM BAD peptide
Procedure: (§1) The activity of PIM3 is measured using a luciferase-luciferin based ATP detection reagent to quantify ATP depletion resulting from kinase-catalyzed phosphoryl transfer to a peptide substrate. Compounds to be tested are dissolved in 100% DMSO and directly distributed into white 384-well plates at 0.5 piper well. […] After 15 minutes, 10 μl of 80 μM ATP in assay buffer is added. Final assay concentrations are 5 nM PIM1, 40 μM ATP, 100 μM BAD peptide and 2.5% DMSO. The reaction is performed until approximately 50% of the ATP is depleted, then stopped by the addition of 20 μl KinaseGlo Plus (Promega Corporation) solution. The stopped reaction is incubated for 10 minutes and the remaining ATP detected via luminescence on the Victor2 (Perkin Elmer).

Pim2 kinase = Pim2 kinase (Homo sapiens (Human), UniProt Q9P1W9); test: Pim2 ATP depletion assay; settings: 4 μM ATP, 10 μM BAD peptide, 5 nM PIM2
Procedure: as §1, with “of PIM2” for “of PIM3”, “of 8” for “of 80”, “nM PIM2, 4” for “nM PIM1, 40”, “ATP, 10” for “ATP, 100”, “stopped with” for “stopped by”

Pim1 kinase = Pim1 kinase (Homo sapiens (Human), UniProt P11309); test: Pim1 ATP depletion assay; settings: 20 μM ATP, 40 μM BAD peptide, 2.5 nM PIM1
Procedure: The activity of PIM1 is measured using a luciferase-luciferin based ATP detection reagent to quantify ATP depletion resulting from kinase-catalyzed phosphoryl transfer to a peptide substrate. Compounds to be tested are dissolved in 100% DMSO and directly distributed into white 384-well plates at 0.5 μl per well. […] After 15 minutes, 10 μl of 40 μM ATP in assay buffer is added. Final assay concentrations are 2.5 nM PIM1, 20 μM ATP, 40 μM BAD peptide and 2.5% DMSO. The reaction is performed until approximately 50% of the ATP is depleted, then stopped with the addition of 20 μl KinaseGlo Plus (Promega Corporation) solution. The stopped reaction is incubated for 10 minutes and the remaining ATP detected via luminescence on the Victor2 (Perkin Elmer).

Sequence of Pim1 kinase (P11309 whole entry): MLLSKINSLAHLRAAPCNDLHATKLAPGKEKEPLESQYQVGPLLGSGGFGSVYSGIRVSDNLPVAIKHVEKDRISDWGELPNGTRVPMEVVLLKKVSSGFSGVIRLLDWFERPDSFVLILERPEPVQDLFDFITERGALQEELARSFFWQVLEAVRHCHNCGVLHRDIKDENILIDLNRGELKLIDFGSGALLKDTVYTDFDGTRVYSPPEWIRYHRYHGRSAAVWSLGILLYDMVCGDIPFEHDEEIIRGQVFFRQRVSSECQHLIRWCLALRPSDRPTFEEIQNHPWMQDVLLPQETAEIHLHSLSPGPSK
Sequence of Pim2 kinase (Q9P1W9 whole entry): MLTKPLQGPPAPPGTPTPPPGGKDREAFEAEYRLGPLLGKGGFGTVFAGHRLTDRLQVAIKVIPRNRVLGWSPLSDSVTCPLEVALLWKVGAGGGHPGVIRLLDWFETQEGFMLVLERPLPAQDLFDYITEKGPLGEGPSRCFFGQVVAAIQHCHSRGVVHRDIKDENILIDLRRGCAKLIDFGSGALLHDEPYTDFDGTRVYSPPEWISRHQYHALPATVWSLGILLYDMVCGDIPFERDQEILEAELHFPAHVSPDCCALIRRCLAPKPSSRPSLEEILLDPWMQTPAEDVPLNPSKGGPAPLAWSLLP

Row | IC50 (Pim3 kinase) [nM] | IC50 (Pim2 kinase) [nM] | IC50 (Pim1 kinase) [nM] | SMILES
1 | 18 | 47 | – | C[C@H]1C[C@@H](c2ccncc2NC(=O)c2csc(-c3c(F)cccc3F)n2)C[C@@H](N)[C@H]1F (racemic) [Example 58, N-(4-((+/−)-3-amino-4-fluoro-5-methylcyclohexyl)pyridin-3-yl)-2-(2,6-difluorophenyl)thiazole-4-carboxamide]
2 | 2 | 4 | 1 | COc1ccc(F)c(-c2nc(C(=O)Nc3cnccc3[C@@H]3C[C@H](C)C[C@H](N)C3)cs2)c1F (stereo in doubt) [Example 52, 2-(2,6-Difluoro-3-methoxy-phenyl)-thiazole-4-carboxylic acid [4-(3-amino-5-methyl-cyclohexyl)-pyridin-3-yl]-amide]
3 | 3 | 9 | 1 | CCOc1ccc(F)c(-c2nc(C(=O)Nc3cnccc3[C@@H]3C[C@H](C)C[C@H](N)C3)cs2)c1F (stereo in doubt) [Example 54, 2-(3-Ethoxy-2,6-difluoro-phenyl)-thiazole-4-carboxylic acid [4-(3-amino-5-methyl-cyclohexyl)-pyridin-3-yl]-amide]
4 | 5 | 15 | 3 | C[C@@H]1C[C@H](N)C[C@H](c2ccncc2NC(=O)c2csc(-c3c(F)ccc(F)c3F)n2)C1 (stereo in doubt) [Example 55, 2-(2,3,6-Trifluoro-phenyl)-thiazole-4-carboxylic acid [4-(3-amino-5-methyl-cyclohexyl)-pyridin-3-yl]-amide]
5 | 3 | 12 | 1 | C[C@@H]1C[C@H](N)C[C@H](c2ccncc2NC(=O)c2csc(-c3c(F)ccc(Cl)c3F)n2)C1 (stereo in doubt) [Example 56, 2-(3-Chloro-2,6-difluoro-phenyl)-thiazole-4-carboxylic acid [4-(3-amino-5-methyl-cyclohexyl)-pyridin-3-yl]-amide]
6 | 2 | 4 | 1 | C[C@@H]1C[C@H](N)C[C@H](c2ccncc2NC(=O)c2csc(-c3c(F)cc(O)cc3F)n2)C1 (stereo in doubt) [Example 57, 2-(2,6-Difluoro-4-hydroxy-phenyl)-thiazole-4-carboxylic acid [4-(3-amino-5-methyl-cyclohexyl)-pyridin-3-yl]-amide]
7 | 5 | 23 | 2 | N[C@@H]1CN(c2ccncc2NC(=O)c2csc(-c3c(F)cccc3F)n2)CC[C@H]1F [Example 3, N-(4-((3R,4R)-3-amino-4-fluoropiperidin-1-yl)pyridin-3-yl)-2-(2,6-difluorophenyl)thiazole-4-carboxamide]
8 | 13 | 77 | 15 | N[C@H]1C[C@@H](O)CN(c2ccncc2NC(=O)c2csc(-c3c(F)cccc3F)n2)C1 [Example 5, N-(4-((3S,5R)-3-amino-5-hydroxypiperidin-1-yl)pyridin-3-yl)-2-(2,6-difluorophenyl)thiazole-4-carboxamide]
9 | 18 | 243 | 5 | COC1CCN(c2ccncc2NC(=O)c2csc(-c3c(F)cccc3F)n2)CC1N (centres unmarked) [Example 7, N-(4-(3-amino-4-methoxypiperidin-1-yl)pyridin-3-yl)-2-(2,6-difluorophenyl)thiazole-4-carboxamide]
10 | 91 | 1500 | 69 | N[C@H]1C[C@H](O)CN(c2ccncc2NC(=O)c2csc(-c3c(F)cccc3F)n2)C1 [Example 9, N-(4-((3S,5S)-3-amino-5-hyydroxypiperidin-1-yl)pyridin-3-yl)-2-(2,6-difluorophenyl)thiazole-4-carboxamide]
11 | 322 | 479 | 2220 | N[C@H]1C[C@H](OC(=O)c2ccccc2)CN(c2ccncc2NC(=O)c2csc(-c3c(F)cccc3F)n2)C1 [Example 10, (3S,5S)-5-amino-1-(3-(2-(2,6-difluorophenyl)thiazole-4-carboxamido)pyridin-4-yl)piperidin-3-yl benzoate]
12 | 45 | 208 | 57 | N[C@H]1CCCN(c2ccncc2NC(=O)c2csc(C3CCCCC3)n2)C1 [Example 12, (S)-N-(4-(3-aminopiperidin-1-yl)pyridin-3-yl)-2-cyclohexylthiazole-4-carboxamide]
13 | 24 | 58 | 14 | NC1CC(CO)CN(c2ccncc2NC(=O)c2csc(-c3c(F)cccc3F)n2)C1 (centres unmarked) [Example 13, N-(4-(3-amino-5-(hydroxymethyl)piperidin-1-yl)pyridin-3-yl)-2-(2,6-difluorophenyl)thiazole-4-carboxamide]
14 | 8 | 70 | 4 | N[C@H]1C[C@H](F)CN(c2ccncc2NC(=O)c2csc(-c3c(F)cccc3F)n2)C1 [Example 17, N-(4-((3S,5S)-3-amino-5-fluoropiperidin-1-yl)pyridin-3-yl)-2-(2,6-difluorophenyl)thiazole-4-carboxamide]
15 | 12 | 54 | 5 | NC1CN(c2ccncc2NC(=O)c2csc(-c3c(F)cccc3F)n2)CCC1Cl (centres unmarked) [Example 18, N-(4-(3-amino-4-chloropiperidin-1-yl)pyridin-3-yl)-2-(2,6-difluorophenyl)thiazole-4-carboxamide]
16 | 16 | 18 | 12 | CC1CC(N)CN(c2ccncc2NC(=O)c2csc(C3CCCCC3)n2)C1 (centres unmarked) [Example 20, N-(4-(3-amino-5-methylpiperidin-1-yl)pyridin-3-yl)-2-cyclohexylthiazole-4-carboxamide]
17 | 20 | 21 | 11 | NC1CC(C(F)(F)F)CN(c2ccncc2NC(=O)c2csc(C3CCCCC3)n2)C1 (centres unmarked) [Example 21, N-(4-(3-amino-5-(trifluoromethyl)piperidin-1-yl)pyridin-3-yl)-2-cyclohexylthiazole-4-carboxamide]
18 | 60 | 378 | 129 | CO[C@H]1C[C@H](N)CN(c2ccncc2NC(=O)c2csc(-c3c(F)cccc3F)n2)C1 [Example 22, N-(4-((3S,5S)-3-amino-5-methoxypiperidin-1-yl)pyridin-3-yl)-2-(2,6-difluorophenyl)thiazole-4-carboxamide]
19 | 4 | 38 | 2 | N[C@@H]1CN(c2ccncc2NC(=O)c2csc(-c3c(F)cccc3F)n2)CC(F)(F)C1 [Example 24, (S)-N-(4-(5-amino-3,3-difluoropiperidin-1-yl)pyridin-3-yl)-2-(2,6-difluoropheenyl)thiazole-4-carboxamide]
20 | 3 | 3 | 1 | CC[C@@H]1C[C@H](N)CN(c2ccncc2NC(=O)c2csc(-c3c(F)cccc3F)n2)C1 [Example 25, N-(4-((3S,5R)-3-amino-5-ethylpiperidin-1-yl)pyridin-3-yl)-2-(2,6-difluorophenyl)thiazole-4-carboxamide]
21 | 24 | 72 | 6 | N[C@@H]1C[C@@H](C(F)(F)F)CN(c2ccncc2NC(=O)c2csc(-c3c(F)cccc3F)n2)C1 [Example 26, N-(4-((3R,5R)-3-amino-5-(trifluoromethyl)piperidin-1-yl)pyridin-3-yl)-2-(2,6-difluorophenyl)thiazole-4-carboxamide]
22 | 3 | 55 | 1 | Nc1sc(-c2c(F)cccc2F)nc1C(=O)Nc1cnccc1N1CCC(F)CC1 [Example 30, 5-amino-2-(2,6-difluorophenyl)-N-(4-(4-fluoropiperidin-1-yl)pyridin-3-yl)thiazole-4-carboxamide]
23 | 8 | 90 | 2 | C[C@@H]1C[C@H](O)C[C@H](c2ccncc2NC(=O)c2csc(-c3c(F)cccc3F)n2)C1 [Example 31, 2-(2,6-difluorophenyl)-N-(4-((1R,3S,5S)-3-hydroxy-5-methylcyclohexyl)pyridin-3-yl)thiazole-4-carboxamide]
24 | 4 | 5 | 1 | C[C@@H]1C[C@H](O)C[C@H](c2ccncc2NC(=O)c2nc(-c3c(F)cccc3F)sc2N)C1 [Example 32, 5-amino-2-(2,6-difluorophenyl)-N-(4-((1R,3S,5S)-3-hydroxy-5-methylcyclohexyl)pyridin-3-yl)thiazole-4-carboxamide]

Reference: patent publication US8829193B2, “PIM kinase inhibitors and methods of their use” (Novartis AG, priority 2008, dated 2014)
